Where two headings read alike, the source gives them in different places. Each block holds one molecule with its values, some of them ahead of it.
Assays:
[1] = test system: human lysosomal β-hexosaminidase (HEX); settings: cited from earlier work
[2] = target: T1, human hexosaminidase B (hHexB) (Homo sapiens, UniProt P07686); test: Inhibition of human hexosaminidase B (4-MUGlcNAc substrate); type: biochemical; settings: for (hHexB/hOGA) selectivity ratio: Ki hHexB / Ki hOGA, favored selectivity for hOGA; for Ki: pH 4.25, 37°C
T1 construct: Micheal Tropak, Hospital for Sick Children, Toronto (gift, not a vendor)
T1 sequence (P07686 122-556): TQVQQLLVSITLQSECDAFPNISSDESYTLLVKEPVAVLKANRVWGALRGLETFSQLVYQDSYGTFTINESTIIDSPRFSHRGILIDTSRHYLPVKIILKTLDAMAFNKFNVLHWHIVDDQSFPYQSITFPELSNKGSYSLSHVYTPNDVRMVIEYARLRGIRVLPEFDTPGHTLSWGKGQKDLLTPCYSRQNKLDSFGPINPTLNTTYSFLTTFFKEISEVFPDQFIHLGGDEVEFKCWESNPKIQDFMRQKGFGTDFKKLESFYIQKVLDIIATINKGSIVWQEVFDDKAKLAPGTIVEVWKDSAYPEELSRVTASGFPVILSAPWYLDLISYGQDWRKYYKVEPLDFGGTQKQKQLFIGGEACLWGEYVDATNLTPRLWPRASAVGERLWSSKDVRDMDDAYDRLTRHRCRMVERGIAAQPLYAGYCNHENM
Source text: We next set out to assess the selectivity of this series of inhibitors for hOGA over the lysosomal β-hexosaminidases, which are comprised of combinations of α and β subunits that are products of the highly homologous HEXA and HEXB genes. […]
(§1) Biological evaluation: Gene expression and protein purification. hOGA was expressed and purified according to the previously described procedure by Macauley et al.[5] hOGA was dialyzed twice against PBS buffer after purification and its concentration determined using the Nanodrop2000. Human β-hexosaminidase was obtained from Micheal Tropak at the Hospital for Sick Children in Toronto, without further purification.
(§2) Kinetic analysis of hOGA. […]
(§3) in PBS pH 7.4 buffer (0.03% BSA) in triplicate at 37°C for 20 minutes. A continuous assay procedure was performed in which the reactions were initiated by the addition of 4-MUGlcNAc substrate (50 µL or 100 µL via a multi-channel […]
(§4) The excitation and emission were 350
(§5) The amount of fluorogenic substrate liberated was quantitatively assessed by using a standard curve for 4-methylumbelliferone under identical buffer conditions. A total of 6-8 inhibitor concentrations were tested, […]
(§6) The hOGA concentrations in the assays ranged from 0.8 nM to 20 nM, depending on whether the Ki being determined was through classic Michaelis-Menten methods or the Morrison Ki fit. For full Ki […]
For the Morrison Ki analyses, only one substrate concentration was used (at the Km) since the method of inhibition was already known from analysis using the Line-weaver Burke plots. […]
Kinetic analysis of β-hexosaminidase. All assays were carried out in 96 well plates (Thermoscientific, FloroNunc, lot […]
reactions were triggered by addition of substrate (20 µL or 15 µL) in a total volume of 45 or 40 µL. Reactions were […]
detect the fluorescent signal. […]

human OGA (hOGA) = target: T2, human OGA (hOGA) (Homo sapiens, UniProt O60502); test: Inhibition of hOGA-catalysed 4-MUGlcNAc hydrolysis (Ki determination); type: biochemical
T2 construct: made in house
T2 sequence (O60502 1-916): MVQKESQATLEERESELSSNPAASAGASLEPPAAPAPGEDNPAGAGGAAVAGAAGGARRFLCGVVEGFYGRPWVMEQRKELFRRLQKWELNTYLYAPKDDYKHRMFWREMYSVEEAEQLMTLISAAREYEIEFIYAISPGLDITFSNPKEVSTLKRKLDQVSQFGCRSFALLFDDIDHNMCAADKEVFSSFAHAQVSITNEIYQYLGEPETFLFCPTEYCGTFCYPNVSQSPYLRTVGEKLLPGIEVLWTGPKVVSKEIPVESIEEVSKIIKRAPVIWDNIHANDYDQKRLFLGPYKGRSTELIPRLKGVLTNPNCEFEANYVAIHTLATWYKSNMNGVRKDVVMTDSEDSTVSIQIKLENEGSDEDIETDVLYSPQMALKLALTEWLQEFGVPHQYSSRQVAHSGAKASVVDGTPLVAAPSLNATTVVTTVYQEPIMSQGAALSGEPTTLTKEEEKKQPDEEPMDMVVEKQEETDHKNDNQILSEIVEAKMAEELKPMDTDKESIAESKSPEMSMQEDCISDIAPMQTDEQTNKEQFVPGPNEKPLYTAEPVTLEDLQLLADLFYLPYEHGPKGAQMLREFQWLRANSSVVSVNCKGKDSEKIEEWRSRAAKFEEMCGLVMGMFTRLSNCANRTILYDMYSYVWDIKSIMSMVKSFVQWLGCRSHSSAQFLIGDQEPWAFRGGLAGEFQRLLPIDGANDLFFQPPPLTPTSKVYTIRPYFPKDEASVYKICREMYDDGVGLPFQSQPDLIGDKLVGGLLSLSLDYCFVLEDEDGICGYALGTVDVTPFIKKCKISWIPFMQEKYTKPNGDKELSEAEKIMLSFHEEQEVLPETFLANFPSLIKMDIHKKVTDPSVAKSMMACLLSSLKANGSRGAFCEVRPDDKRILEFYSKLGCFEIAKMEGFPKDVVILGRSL
Source text: Refinement of the Morrison approach by Copeland enables defining the Ki value for an inhibitor through the use of relative rates using a quadratic equation (eqn (1)).[46] This approach depends on knowing the initial free enzyme and inhibitor concentrations without the assumption that the free inhibitor concentration is equal to the total inhibitor concentration.1 [drawing 1]
Further, Ki values can be accurately determined over a wide range of enzyme concentrations using this method,[47] which enabled us to use hOGA concentrations that permit accurate initial rate determinations. […]
as §1, §2, §3, §4, §5, §6
For the Morrison Ki analyses, only one substrate concentration was used (at the Km) since the method of inhibition was already known from analysis using the Line-weaver Burke plots.
Kinetic analysis of substrates 18a-e were performed in triplicate using pH 7.4 PBS buffer (0.03% BSA) containing 2.5% DMF, with varying enzyme concentrations. […]

[3] = pKa determination using 13C NMR titration
Method: (§7) In this way, a non-linear plot of the difference between NMR resonance frequencies for a compound of interest and those for a standard, such as 3-nitrophenol, can be used to determine the ratio (R) of the acid dissociation constants between these two materials.
(§8) pK determination using 13C NMR. All titrations were carried out on the Bruker AVANCE II 600 MHz NMR
(§9) spectrometer. The samples prepared for each titration contained 5 µL of 1,4-dioxane as an internal standard, an equal mol
(§10) amount of inhibitor and 3-nitrophenol or 3.4-dinitrophenol (depending on the availability of each compound) in 500 µL of
(§11) Each sample was made basic with 25-70 µL of 2M NaOH, and prior to
(§12) titration, it was ensured that there was no change in chemical shift with further addition of base in 5 µL increments, in
(§13) order to accurately establish the δd for each compound. The basic sample was then titrated with 10 µL of 0.5 M (15f-15h,
(§14) titration was reached. The point where the chemical shift stopped changing was the recorded δp for each compound. The
(§15) relative pKa (∆pKa) was then determined by non-linear fitting of data to Equation S1, which provides the value of R (R =
(§16) K x/K r) and describes the relationship between the difference (∆) in chemical shifts (δ) between each compound of
(§17) unknown pKa (x) and the reference compound with known pKa (r). δp and δd represent the chemical shifts of the protonated
(§18) and de-protonated species of each compound, where ∆ expresses the difference between the de-protonated species (δ x –
(§19) δd ), ∆ represents the difference between the deprotonated and protonated species of x (δd – δp ), and ∆ for that of the
(§20) reference compound (∆r = δ r – δ r). The fractional protonation of the reference compound is represented by n and is equal
We observed the 2′-carbon of the
(§21) aminothiazoline system and the C-1 carbon of 3-nitrophenol since these are most proximal to the ionizable center. Fitting
(§22) of the resulting data to Equation S1 (Figure 5 (ThiamEt-G), Supplemental Figure S7) enabled us to obtain values of R for
(§23) each compound and, by comparison to the reference compound, absolute pKa values (Table 1). The observed pKa values

physchem = settings: aqueous solution (H2O/D2O) with reference phenol
Method: as §7, §8, §9, §10, §11, §12, §13, §14, §15, §16, §17, §18, §19, §20
We observed the 2′-carbon of the
as §21, §22, §23

hOGA = target: T3, hOGA (Homo sapiens, UniProt O60502); settings: cited from earlier work
T3 construct: made in house
T3 sequence (O60502 1-916): T2 sequence (O60502 1-916)

[4] = reference compound with known pKa; cited from earlier work
[5] = Morrison Ki fit, 4-MUGlcNAc, PBS pH 7.4, 37°C, read-out: hOGA Ki
[6] = Dixon plot analysis (approximate Ki)
[7] = 3,4-dinitrophenol as reference compound
[8] = Michaelis–Menten inhibition analysis, 4-MUGlcNAc, PBS pH 7.4, 37°C, read-out: hOGA Ki
[9] = 3-nitrophenol as reference compound

SMILES: CC(=O)N[C@H]1CN2CC[C@H](O)[C@@H]2[C@@H](O)[C@@H]1O [6-Ac-Cas, 6-acetamido-6-deoxy-castanospermine]
selectivity for hOGA over lysosomal β-hexosaminidases ([1]; in words): non-selective

SMILES: CCCCC(=O)N[C@H]1c2nc(CCc3ccccc3)cn2[C@H](CO)[C@@H](O)[C@@H]1O [GlcNAcstatin H]
Ki(HEX)/Ki(hOGA) [1]: 35 000

SMILES: CCNC1=N[C@@H]2[C@@H](O)[C@H](O)[C@@H](CO)O[C@@H]2S1 [15c, 1,2-dideoxy-2′-ethylamino-α-D-glucopyranoso-[2,1-d]-Δ2′-thiazoline]
R (Kax/Kar) [3, 9]: 0.1823 ± 0.0042
Fraction protonated at pH 7.4 [3]: 0.66
Ki ([1]; read-out: hHexB Ki): 740 ± 60 µM
pKa (physchem): 7.68

SMILES: OC[C@H]1O[C@@H]2SC(NCCF)=N[C@@H]2[C@@H](O)[C@@H]1O [15f]
Ki [2, 6]: 180 ± 44 µM
(hHexB/hOGA) selectivity ratio [2]: 12 000
R (Kax/Kar) [3, 9]: 0.0316 ± 0.0063
Fraction protonated at pH 7.4 [3]: 0.25
Ki (human OGA (hOGA)): 0.015 ± 0.005 µM
pKa (physchem): 6.92

SMILES: C=CC=CC(=O)N[C@H]1c2nc(CCc3ccccc3)cn2[C@H](CO)[C@@H](O)[C@@H]1O [GlcNAcstatin G]
Ki (hOGA): 0.0041 µM
Ki(HEX)/Ki(hOGA) [1]: 900 000

SMILES: CC(C)C(=O)N[C@H]1c2nc(CCc3ccccc3)cn2[C@H](CO)[C@@H](O)[C@@H]1O [GlcNAcstatin C]
Ki (hOGA): 0.0032 µM
Ki(HEX)/Ki(hOGA) [1]: 190

SMILES: CCCC1=N[C@@H]2[C@@H](O)[C@H](O)[C@@H](CO)O[C@@H]2S1 [NButGT, reference compound]
R (Kax/Kar) [3, 7]: 5.47 ± 3.28
Ki(HEX)/Ki(hOGA) ([1]; selectivity for hOGA over lysosomal β-hexosaminidases): 1,500
pKa (physchem): 4.65

SMILES: O=[N+]([O-])c1cccc(O)c1 [3-nitrophenol]
pKa [4]: 8.42

Further lines, results first:

(hHexB/hOGA) selectivity ratio [2]: 1100
Ki ([2]; Michaelis–Menten inhibition analysis (full Ki)): 5 ± 0.6 µM
Ki (human OGA (hOGA); [5]): 0.0047 ± 0.0003 µM
SMILES: NC1=N[C@@H]2[C@@H](O)[C@H](O)[C@@H](CO)O[C@@H]2S1 [11a]

Ki [2, 6]: 4200 ± 1530 µM
(hHexB/hOGA) selectivity ratio [2]: 4200
R (Kax/Kar) [3, 7]: 1.213 ± 0.049
Fraction protonated at pH 7.4 [3]: 0.01
Ki (human OGA (hOGA); [8]): 1 ± 0.2 µM
pKa (physchem): 5.33
SMILES: OC[C@H]1O[C@@H]2SC(NCC(F)(F)F)=N[C@@H]2[C@@H](O)[C@@H]1O [15h]

Ki [2, 6]: 2850 ± 570 µM
(hHexB/hOGA) selectivity ratio [2]: 950 000
mode of inhibition of hOGA (human OGA (hOGA); Lineweaver–Burk / Michaelis-Menten analysis): competitive inhibition
Ki (human OGA (hOGA); Michaelis-Menten analysis, hOGA 0.8 nM (Figure S2A), read-out: hOGA Ki): 0.0023 ± 0.0003 µM
Ki (human OGA (hOGA); [5]): 0.0032 ± 0.0004 µM
Ki (human OGA (hOGA); Morrison approach, hOGA 10 nM, substrate 60 µM (Figure S2B), read-out: hOGA Ki): 0.0032 ± 0.0004 µM
Ki (human OGA (hOGA); graphical determination, Km app against inhibitor concentration (Figure S2A inset), read-out: hOGA Ki): 0.0047 µM
SMILES: C=CCNC1=N[C@@H]2[C@@H](O)[C@H](O)[C@@H](CO)O[C@@H]2S1 [11b]

Ki [2, 6]: 3700 ± 670 µM
(hHexB/hOGA) selectivity ratio [2]: 1 850 000
Ki (human OGA (hOGA); [5]): 0.002 ± 0.0002 µM
SMILES: CCCNC1=N[C@@H]2[C@@H](O)[C@H](O)[C@@H](CO)O[C@@H]2S1 [15d]

Ki [2, 6]: 4800 ± 763 µM
(hHexB/hOGA) selectivity ratio [2]: 13 700
Ki (human OGA (hOGA); [8]): 0.35 ± 0.09 µM
SMILES: CCCCNC1=N[C@@H]2[C@@H](O)[C@H](O)[C@@H](CO)O[C@@H]2S1 [15e]

Ki [2, 6]: 150 ± 50 µM
(hHexB/hOGA) selectivity ratio [2]: 2500
R (Kax/Kar) [3, 9]: 0.0058 ± 0.0002
Fraction protonated at pH 7.4 [3]: 0.06
Ki (human OGA (hOGA); [8]): 0.06 ± 0.01 µM
pKa (physchem): 6.18
SMILES: OC[C@H]1O[C@@H]2SC(NCC(F)F)=N[C@@H]2[C@@H](O)[C@@H]1O [15g]

Ki [2, 6]: 13 ± 3.8 µM
SMILES: CN(C)C1=N[C@@H]2[C@@H](O)[C@H](O)[C@@H](CO)O[C@@H]2S1 [15b]

Source: publication PMC6008586, “Analysis of transition state mimicry by tight binding aminothiazoline inhibitors provides insight into catalysis by human O-GlcNAcase” (Chemical Science, 2016)
